Tested on: PDC 521955-158-R6-J3 spheroids, viability
Experiment: Anticancer human tumor 521955-158-R6-J3-PDC patient-derived pancreatic carcinoma cell line growth inhibition [TAK]
Details: spheroids with HUVEC and MSC; for IC50: curve of first compound; for viability, T/C: stronger effect = lower value; active = viability on the fitted dose curve at most 10% of control; inactive = the rest
Outline: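 Spheroids of 60% malignant cells, 25% HUVEC and 15% hMSC were exposed to targeted agents combined with TAK-243 or ipatasertib. Concentrations started at or near clinical Cmax (10 microM if unknown) and descended in half-log steps.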

[1] = second compound 0.3 µM, first compound 0.0316 µM
[2] = second compound 0.3 µM, first compound 0.1 µM
[3] = second compound 0.3 µM, first compound 0.316 µM
[4] = second compound 0.3 µM, first compound 1 µM
[5] = second compound 0.3 µM, first compound 3.16 µM
[6] = second compound 0.3 µM, first compound 10 µM
[7] = second compound 0.949 µM, first compound 0.0316 µM
[8] = second compound 0.949 µM, first compound 0.1 µM
[9] = second compound 0.949 µM, first compound 0.316 µM
[10] = second compound 0.949 µM, first compound 1 µM
[11] = second compound 0.949 µM, first compound 3.16 µM
[12] = second compound 0.949 µM, first compound 10 µM
[13] = second compound 3 µM, first compound 0.0316 µM
[14] = second compound 3 µM, first compound 0.1 µM
[15] = second compound 3 µM, first compound 0.316 µM
[16] = second compound 3 µM, first compound 1 µM
[17] = second compound 3 µM, first compound 3.16 µM
[18] = second compound 3 µM, first compound 10 µM
[19] = second compound 9.49 µM, first compound 0.0316 µM
[20] = second compound 9.49 µM, first compound 0.1 µM
[21] = second compound 9.49 µM, first compound 0.316 µM
[22] = second compound 9.49 µM, first compound 1 µM
[23] = second compound 9.49 µM, first compound 3.16 µM
[24] = second compound 9.49 µM, first compound 10 µM
[25] = second compound 30 µM, first compound 0.0316 µM
[26] = second compound 30 µM, first compound 0.1 µM
[27] = second compound 30 µM, first compound 0.316 µM
[28] = second compound 30 µM, first compound 1 µM
[29] = second compound 30 µM, first compound 3.16 µM
[30] = second compound 30 µM, first compound 10 µM
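Also: spheroids exposed to drugs for 7 days before readout.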
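For viability, T/C in this document: 100% = DMSO vehicle control viability.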

CC(C)(C)c1nc(-c2cccc(NS(=O)(=O)c3c(F)cccc3F)c2F)c(-c2ccnc(N)n2)s1 + CC(C)NCC(C(=O)N1CCN(c2ncnc3c2C(C)CC3O)CC1)c1ccc(Cl)cc1
inactive: viability, T/C [1] 104% | viability, T/C [2] 128% | viability, T/C [3] 136% | viability, T/C [4] 129% | viability, T/C [5] 107% | viability, T/C [6] 107% | viability, T/C [7] 98.7% | viability, T/C [8] 123% | viability, T/C [9] 136% | viability, T/C [10] 129% | viability, T/C [11] 105% | viability, T/C [12] 85.8% | viability, T/C [13] 91.9% | viability, T/C [14] 110% | viability, T/C [15] 117% | viability, T/C [16] 119% | viability, T/C [17] 100% | viability, T/C [18] 73.8% | viability, T/C [19] 84.2% | viability, T/C [20] 97.4% | viability, T/C [21] 118% | viability, T/C [22] 119% | viability, T/C [23] 94.8% | viability, T/C [24] 65% | viability, T/C [25] 87.9% | viability, T/C [26] 83.5% | viability, T/C [27] 95.5% | viability, T/C [28] 83.8% | viability, T/C [29] 73.2% | viability, T/C [30] 68.6%
> 10 µM: IC50 (second compound 0.3 µM) | IC50 (second compound 0.949 µM) | IC50 (second compound 3 µM) | IC50 (second compound 9.49 µM) | IC50 (second compound 30 µM)

CC(C)n1nc(-c2ccc3oc(N)nc3c2)c2c(N)ncnc21 + CC(C)NCC(C(=O)N1CCN(c2ncnc3c2C(C)CC3O)CC1)c1ccc(Cl)cc1
0.00644 µM: IC50 (second compound 30 µM)
inactive: viability, T/C (second compound 0.3 µM, first compound 0.000316 µM) 83.2% | viability, T/C (second compound 0.3 µM, first compound 0.001 µM) 85% | viability, T/C (second compound 0.3 µM, first compound 0.00316 µM) 87.1% | viability, T/C (second compound 0.3 µM, first compound 0.01 µM) 80.5% | viability, T/C [1] 70.3% | viability, T/C [2] 54.1% | viability, T/C (second compound 0.949 µM, first compound 0.000316 µM) 70.3% | viability, T/C (second compound 0.949 µM, first compound 0.001 µM) 74.7% | viability, T/C (second compound 0.949 µM, first compound 0.00316 µM) 71.9% | viability, T/C (second compound 0.949 µM, first compound 0.01 µM) 77% | viability, T/C [7] 56.3% | viability, T/C [8] 40.2% | viability, T/C (second compound 3 µM, first compound 0.000316 µM) 75.6% | viability, T/C (second compound 3 µM, first compound 0.001 µM) 76.8% | viability, T/C (second compound 3 µM, first compound 0.00316 µM) 70% | viability, T/C (second compound 3 µM, first compound 0.01 µM) 66.8% | viability, T/C [13] 44.6% | viability, T/C [14] 29.8% | viability, T/C (second compound 9.49 µM, first compound 0.000316 µM) 64% | viability, T/C (second compound 9.49 µM, first compound 0.001 µM) 67.3% | viability, T/C (second compound 9.49 µM, first compound 0.00316 µM) 73.9% | viability, T/C (second compound 9.49 µM, first compound 0.01 µM) 55% | viability, T/C [19] 40.3% | viability, T/C [20] 26.4% | viability, T/C (second compound 30 µM, first compound 0.000316 µM) 63.2% | viability, T/C (second compound 30 µM, first compound 0.001 µM) 62.5% | viability, T/C (second compound 30 µM, first compound 0.00316 µM) 54.5% | viability, T/C (second compound 30 µM, first compound 0.01 µM) 47.4% | viability, T/C [25] 33.4% | viability, T/C [26] 23.9%
> 0.1 µM: IC50 (second compound 0.3 µM)
0.0163 µM: IC50 (second compound 9.49 µM)
0.024 µM: IC50 (second compound 3 µM)
0.0495 µM: IC50 (second compound 0.949 µM)

CCCS(=O)(=O)Nc1ccc(F)c(C(=O)c2c[nH]c3ncc(-c4ccc(Cl)cc4)cc23)c1F + CC(C)NCC(C(=O)N1CCN(c2ncnc3c2C(C)CC3O)CC1)c1ccc(Cl)cc1
inactive: viability, T/C [3] 143% | viability, T/C [4] 89.8% | viability, T/C [5] 96.1% | viability, T/C [6] 92.2% | viability, T/C (second compound 0.3 µM, first compound 31.6 µM) 79.8% | viability, T/C (second compound 0.3 µM, first compound 100 µM) 176% | viability, T/C [9] 98.1% | viability, T/C [10] 108% | viability, T/C [11] 80.6% | viability, T/C [12] 128% | viability, T/C (second compound 0.949 µM, first compound 31.6 µM) 79.5% | viability, T/C (second compound 0.949 µM, first compound 100 µM) 159% | viability, T/C [15] 93.3% | viability, T/C [16] 97.5% | viability, T/C [17] 81% | viability, T/C [18] 97.4% | viability, T/C (second compound 3 µM, first compound 31.6 µM) 66.6% | viability, T/C (second compound 3 µM, first compound 100 µM) 39.5% | viability, T/C [21] 94.8% | viability, T/C [22] 98.5% | viability, T/C [23] 78.5% | viability, T/C [24] 88.9% | viability, T/C (second compound 9.49 µM, first compound 31.6 µM) 87.4% | viability, T/C (second compound 9.49 µM, first compound 100 µM) 20.4% | viability, T/C [27] 106% | viability, T/C [28] 108% | viability, T/C [29] 132% | viability, T/C [30] 99.8% | viability, T/C (second compound 30 µM, first compound 31.6 µM) 20.2%
> 100 µM: IC50 (second compound 0.3 µM) | IC50 (second compound 0.949 µM)
active: viability, T/C (second compound 30 µM, first compound 100 µM) 7.85%
64 µM: IC50 (second compound 3 µM)
21.8 µM: IC50 (second compound 30 µM)
60.1 µM: IC50 (second compound 9.49 µM)
